From patent US11180483B2, “Substituted reverse pyrimidine Bmi-1 inhibitors” (PTC Therapeutics, Inc., priority 2012, dated 2021)

Columns and labels:
Bmi-1 = assay: Sandwich ELISA Assay (Bmi-1 ELISA) in HT-1080 cells; format: cell-based
Summary of the method: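 HT-1080 cells exposed to compound in 0.5% final DMSO for 40-48 h at 37 °C, then lysed. Bmi-1 was quantified by sandwich ELISA: mouse monoclonal capture, rabbit anti-Bmi-1 detection, HRP anti-rabbit and TMB. Read at OD450 (OD570 reference) against a recombinant GST-Bmi-1 standard curve (0-8000 pg/mL).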

[1] = system: CSC population in a BXD GBM model; assay: In Vitro Cancer Stem Cell Assay, BXD GBM model (number of neurospheres); format: cell-based; conditions: 13 days, stated concentrations
Experimental: In Vitro Cancer Stem Cell Assay
The effect on inhibition of Bmi-1 function and reduction in the level of Bmi-1 protein by a compound of Formula (I) or a form thereof was tested in the in vitro pediatric Baylor Xenograft Derived (BXD) brain tumor model and in cells from primary patient cultures (PPC).
Cells were grown under conditions to measure either general cell growth (such as in fetal bovine serum (FBS) containing media in conventional tissue culture plates) or in conditions specifically for cancer stem cell (CSC) growth (low serum, nonadherent plates) to assess the effect of Bmi-1 inhibition and reduction in the level of Bmi-1 protein by a compound of Formula (I) on these populations. The cells were treated with a predetermined dose range of Compound 109 at fixed time points over a time period of from 24 hours to 13 days. The effect of inhibition on cell growth viability was quantitated using conventional 2D growth and neurosphere growth using a cell-counting kit (CCK) (supplied by Dojindo Molecular Technologies, Inc.).

U87-MG tumor cells = assay: In Vivo Survival Assay, orthotopic model of glioblastoma; parameters: species or system nu/nu mice; conditions: daily dosing begun 10 days after intracranial implantation, 40 day time period, versus vehicle and temozolomide (p<0.0001)
Experimental: A glioblastoma animal model was developed in which U87-MG tumor cells were injected intracranially into nu/nu mice and a tumor was allowed to become established over a 10 day period. The mice were dosed daily with vehicle, Compound 109 or temozolomide (a standard-of-care agent), as indicated. The comparative results for survival for each treatment group (n=10) from administration of vehicle, Compound 109 and temozolomide are shown in FIG. 4.
Cells were implanted intracranially into nude mice and dosing was begun 10 days later with either vehicle, Compound 109 or temozolomide.

Row | SMILES | EC50 (Bmi-1) [nM] | CSC population (as measured by number of neurospheres), FIG. 1 [1] | CSC population (as measured by number of neurospheres), FIG. 2 [1] | survival of tumor bearing mice, FIG. 4 (U87-MG tumor cells) | melting point [°C]
1 | Cc1nc2ccc(F)cc2n1-c1nc(N)c(F)c(Nc2ccc(C(F)(F)F)cc2)n1 [Cpd 109, 5-fluoro-2-(6-fluoro-2-methyl-1H-benzimidazol-1-yl)-N-[4-(trifluoromethyl)phenyl]pyrimidine-4,6-diamine] | 10 to 100 | dose dependently reduced | universally reduced | extended survival | –
2 | Cc1nc2ccccc2n1-c1nc(N)cc(Nc2ccc3c(c2)OC(F)(F)O3)n1 [Cpd 206, N-(2,2-difluoro-1,3-benzodioxol-5-yl)-2-(2-methyl-1H-benzimidazol-1-yl)pyrimidine-4,6-diamine] | 10 to 100 | – | – | – | 141 to 142
3 | COc1ccc(Nc2cc(N)nc(-n3c(C)nc4ccccc43)n2)cc1F [Cpd 207, N-(3-fluoro-4-methoxyphenyl)-2-(2-methyl-1H-benzimidazol-1-yl)pyrimidine-4,6-diamine] | 1 to 10 | – | – | – | 233 to 234
4 | COc1ccc(Nc2cc(N)nc(-n3c(C)nc4ccccc43)n2)cn1 [Cpd 208, N-(6-methoxypyridin-3-yl)-2-(2-methyl-1H-benzimidazol-1-yl)pyrimidine-4,6-diamine] | 1 to 10 | – | – | – | 118 to 119
5 | Cc1nc2ccc(F)cn2c1-c1nc(N)c(F)c(Nc2ccc(Cl)cc2)n1 [Cpd 251, N-(4-chlorophenyl)-5-fluoro-2-(6-fluoro-2-methylimidazo[1,2-a]pyridin-3-yl)pyrimidine-4,6-diamine] | 100 to 3000 | – | – | – | 226 to 229
6 | COc1ccc(Nc2nc(-c3c(C)nc4ccc(F)cn34)nc(N)c2F)cc1 [Cpd 252, 5-fluoro-2-(6-fluoro-2-methylimidazo[1,2-a]pyridin-3-yl)-N-(4-methoxyphenyl)pyrimidine-4,6-diamine] | 10 to 100 | – | – | – | 204 to 206
7 | Cc1ccc(Nc2nc(-c3c(C)nc4ccc(F)cn34)nc(N)c2F)cc1 [Cpd 253, 5-fluoro-2-(6-fluoro-2-methylimidazo[1,2-a]pyridin-3-yl)-N-(4-methylphenyl)pyrimidine-4,6-diamine] | 1 to 10 | – | – | – | 210 to 212
8 | Cc1nc2ccc(F)cc2n1-c1nc(N)cc(Nc2ccc(Cl)cc2)n1 [Cpd 263, N-(4-chlorophenyl)-2-(6-fluoro-2-methyl-1H-benzimidazol-1-yl)pyrimidine-4,6-diamine] | 10 to 100 | – | – | – | 183 to 185
9 | Cc1nc2ccc(F)cc2n1-c1nc(N)cc(Nc2ccc(N(C)C)cc2)n1 [Cpd 266, N-[4-(dimethylamino)phenyl]-2-(6-fluoro-2-methyl-1H-benzimidazol-1-yl)pyrimidine-4,6-diamine] | 10 to 100 | – | – | – | 122 to 125
10 | Cc1nc2ccc(F)cc2n1-c1nc(N)cc(Nc2ccc(Cl)c(F)c2)n1 [Cpd 267, N-(4-chloro-3-fluorophenyl)-2-(6-fluoro-2-methyl-1H-benzimidazol-1-yl)pyrimidine-4,6-diamine] | 100 to 3000 | – | – | – | 225 to 227
11 | Cc1cccc(Nc2cc(N)nc(-n3c(C)nc4ccc(F)cc43)n2)c1 [Cpd 268, 2-(6-fluoro-2-methyl-1H-benzimidazol-1-yl)-N-(3-methylphenyl)pyrimidine-4,6-diamine] | 100 to 3000 | – | – | – | 203 to 205
12 | Cc1nc2ccc(F)cc2n1-c1nc(N)cc(Nc2ccc3c(c2)OC(F)(F)O3)n1 [Cpd 269, N-(2,2-difluoro-1,3-benzodioxol-5-yl)-2-(6-fluoro-2-methyl-1H-benzimidazol-1-yl)pyrimidine-4,6-diamine] | 100 to 3000 | – | – | – | 212 to 215
